Like-named read-outs stand apart in the source and are kept apart here.
What was measured:
[1] = system: Escherichia coli ATCC 25922; assay: Luminescence of culture samples after addition of Compound Va with 15% v/v ethanol; type: cell-based; details: for Signal to noise ratio, LB1:20 (to sterile) / RLU, 6 h LB / RLU, 6 h LB1:20: E.c.; for RLU, 6 h LB / RLU, 6 h LB1:20: 20 μM, 15% v/v ethanol, 9-10 min after addition
Protocol: (§1) Escherichia coli ATCC 25922 (E.c., beta-galactosidase positive) and Salmonella Enteritidis RKI 05/07992 (S.E., beta-galactosidase negative) were cultivated in Nutrient Broth for 17 h and then serially diluted in sterile saline (0.9% NaCl). Diluted cell suspensions were inoculated 1:100 v/v in test tubes with either full-strength LB medium (10 g/L tryptone, 5 g/L yeast extract, 5 g/L NaCl) or LB medium diluted 1:20 v/v with ultrapure water (LB1:20). All media contained 1 mM IPTG for induction of beta-galactosidase. Sterile saline was added to negative control tubes. After 6 h of cultivation at 37° C. and 150 rpm, samples (0.255 mL) were withdrawn from cultures and mixed with 45 μL stock solution of compound Va in ethanol in a white microtiter plate. […] For comparison, the same E. coli strain was pre-cultured and diluted in a similar way and then inoculated in diluted Mueller-Hinton broth (MH1:20, full-strength medium diluted 1:20 v/v with 20 mM phosphate buffer pH 7.2). The medium was supplemented with 1 mM IPTG. After 6 h of cultivation at 37° C. and 150 rpm, culture samples (45 μL) were transferred to a microtiter plate and mixed with 5 μL of 10x lysis reagent which contained 2% w/v dodecyl-trimethylammonium bromide, 1 mM D-Luciferin-6-O-beta-D-galactopyranoside (commercially available, Biosynth Cat. No. L-8600) and 10 mM magnesium chloride. Lysis and reaction with D-Luciferin-6-O-beta-D-galactopyranoside was carried out for 1 h at 37° C. Then 0.2 mL of luciferase assay mix was added (5:1 v/v). The assay mix contained 62.5 mM Tris acetate (pH 7.8), 12.5 mM magnesium sulfate, 2.5 g/L bovine serum albumin, 7.5 mM D/L-cysteine, 1.25 mM ethylene diamine tetraacetate, 25 μM sodium pyrophosphate, 10 g/L cyclodextrin, 1.25 mM adenosine 5-triphosphate and 13.1 μg/mL commercially available Photinus pyralis luciferase (recombinant). Light emission was recorded with a SpectraMax M5 plate reader.

[2] = system: Salmonella Enteritidis RKI 05/07992; assay: as above; type: cell-based; details: S.E., inoculation density 10^6 CFU/mL
Protocol: as §1

[3] = system: Salmonella Enteritidis RKI 05/07992; assay: Luminescence of cultures containing D-luciferin-6-O-phenyl-caprylate after mixing with luciferase assay mix; type: cell-based, Salmonella enterica ssp. enterica ser. Enteritidis; details: S.E.; for RLU, 6 h: 0.1 mM in Nutrient Broth, first 3 min after luciferase assay mix
Protocol: D-luciferin-6-O-phenyl-caprylate was synthesized according to procedures known to persons skilled in the art. Salmonella Enteritidis RKI 05/07992 (S.E., Salmonella enterica ssp. enterica ser. Enteritidis, C8 esterase positive) was cultivated in Nutrient Broth (5 g/L peptone, 5 g/L NaCl, 2 g/L […], 1 g/L […], pH 7.4) for 16 h and then serially diluted in sterile saline (0.9% NaCl). Diluted cell suspensions were inoculated 1:100 v/v in test tubes with Nutrient Broth containing 0.1 mM D-luciferin-6-O-phenyl-caprylate. […] Light emission was recorded with a plate reader equipped with a luminescence detection system. Mean RLU (relative light unit) values of first 3 min after addition of luciferase assay mix were compared (Table VII).

[4] = system: Escherichia coli ATCC 25922; assay: Luminescence of culture samples of carbapenem resistant and sensitive bacteria after addition of compound VIIa; type: cell-based; details: E.c.; for RLU max. (with 10 μM VI): 6 h culture, 30 min recording
Protocol: (§2) Carbapenem resistant bacterial strains Pseudomonas aeruginosa RKI 48/09 (IMP-2) (P.a.-Imp^R) and Klebsiella pneumoniae RKI 92/08 (KPC-2) (K.p.-Imp^R) were cultivated on trypticase soy agar supplemented with 8 mg/L and […] imipenem, respectively. Carbapenem sensitive strain Escherichia coli ATCC 25922 (E.c.) was cultivated on trypticase soy agar. Nutrient broth (for composition and pH see previous examples, 3 mL in 15 mL tubes) with and without imipenem was inoculated with imipenem resistant and sensitive bacteria from agar plates. Tube cultures were incubated for 6 h at 37° C. and 150 rpm. Culture samples (0.255 mL) were transferred to wells of a white microtiter plate and mixed with 45 μL stock solution of compound Vila in ethanol. Final concentrations of compound Vila, ethanol and dimethyl sulfoxide were 10 μM, […] and 1% v/v, respectively. Luminescence was recorded after addition of […] for 30 min with a plate reader.

[5] = system: Pseudomonas aeruginosa RKI 48/09 (IMP-2); type: cell-based; details: P.a.-Imp^R; for RLU max. (with 10 μM VI): 6 h culture, 30 min recording
Protocol: as §2

[6] = system: Klebsiella pneumoniae RKI 92/08 (KPC-2); type: cell-based; details: K.p.-Imp^R; for RLU max. (with 10 μM VI): 6 h culture, 30 min recording
Protocol: as §2

[7] = system: Escherichia coli ATCC 25922; details: E.c.; for Signal to noise ratio (to sterile): MH1:20; for RLU, 6 h MH1:20: first two minutes of measurement
Protocol: as §1

[8] = inoculation density 10^2 CFU/mL
[9] = inoculation density 10^3 CFU/mL
[10] = inoculation density 10^4 CFU/mL
[11] = inoculation density 10^5 CFU/mL
[12] = inoculation density 10^6 CFU/mL
[13] = 20 μM, 15% v/v ethanol, 9-10 min after addition
[14] = imipenem 4 mg/L in nutrient broth

COC(=O)/C=C/c1ccc(C2(OC)OOC23C2CC4CC(C2)CC3C4)c(Cl)c1OCc1ccc(OC2OC(CO)C(O)C(O)C2O)cc1 (centres unmarked) [Compound Va]
Signal to noise ratio, LB1:20 (to sterile) [1, 8]: 14
RLU, 6 h LB [1, 8]: 551 RLU
RLU, 6 h LB1:20 [1, 8]: 1369 RLU
Signal to noise ratio, LB1:20 (to sterile) [1, 9]: 79
RLU, 6 h LB [1, 9]: 3317 RLU
RLU, 6 h LB1:20 [1, 9]: 7690 RLU
Signal to noise ratio, LB1:20 (to sterile) [1, 10]: 1085
RLU, 6 h LB [1, 10]: 49434 RLU
RLU, 6 h LB1:20 [1, 10]: 105252 RLU
Signal to noise ratio, LB1:20 (to sterile) [1, 11]: 1698
RLU, 6 h LB [1, 11]: 43412 RLU
RLU, 6 h LB1:20 [1, 11]: 164721 RLU
Signal to noise ratio, LB1:20 (to sterile) [1, 12]: 871
RLU, 6 h LB [1, 12]: 18830 RLU
RLU, 6 h LB1:20 [1, 12]: 84511 RLU
signal to noise ratio higher than with D-Luciferin-6-O-beta-D-galactopyranoside ([1]; lowest tested inoculation density of E. coli, 5-fold lower working concentration): 9 fold
Signal to noise ratio, LB1:20 (to sterile) [2]: 1
RLU, 6 h LB [2, 13]: 66 RLU
RLU, 6 h LB1:20 [2, 13]: 125 RLU

CCCCCCCC(=O)Oc1ccc(COc2ccc3nc(C4=N[C@@H](C(=O)O)CS4)sc3c2)cc1 [D-luciferin-6-O-phenyl-caprylate]
Signal to noise ratio (to sterile) [3, 8]: 1.1
RLU, 6 h [3, 8]: 18354 RLU
Signal to noise ratio (to sterile) [3, 10]: 1.6
RLU, 6 h [3, 10]: 27783 RLU
Signal to noise ratio (to sterile) [3, 12]: 24
RLU, 6 h [3, 12]: 417195 RLU

C[C@@H](O)[C@H]1C(=O)N2C(C(=O)O)=C(SCCN=CN)C[C@H]12 [Imipenem, imipenem, reference compound]
OD600 6 h [4, 14]: 0.01
OD600 6 h ([5]; imipenem 8 mg/L in nutrient broth): 0.48
OD600 6 h [6, 14]: 0.50

COC(=O)/C=C/c1ccc(C2(OC)OOC23C2CC4CC(C2)CC3C4)c(Cl)c1OCc1ccc(C2=C(C(=O)O)N3C(=O)[C@H]([C@@H](C)O)[C@H]3[C@H]2C)cc1 (stereo partly drawn) [VIIa, (4S,5R,6S)-3-(4-((2-Chloro-6-((E)-3-methoxy-3-oxoprop-1-en-1-yl)-3-((1r,3r,5S,7S)-4′-methoxyspiro[adamantane-2,3′-[1,2]dioxetan]-4′-yl)phenoxy)methyl)phenyl)-6-((R)-1-hydroxyethyl)-4-methyl-7-oxo-1-azabicyclo[3.2.0]hept-2-ene-2-carboxylicacid]
RLU max. (with 10 μM VI) ([4]; imipenem 0 mg/L): 8181 RLU
RLU max. (with 10 μM VI) ([4]; imipenem 4 mg/L): 7992 RLU
Signal to noise ratio (to E.c.) ([5]; imipenem 0 mg/L): 2.4
RLU max. (with 10 μM VI) ([5]; imipenem 0 mg/L): 19940 RLU
Signal to noise ratio (to E.c.) ([5]; imipenem 8 mg/L): 2.6
RLU max. (with 10 μM VI) ([5]; imipenem 8 mg/L): 21028 RLU
Signal to noise ratio (to E.c.) ([6]; imipenem 0 mg/L): 8.9
RLU max. (with 10 μM VI) ([6]; imipenem 0 mg/L): 72951 RLU
Signal to noise ratio (to E.c.) ([6]; imipenem 4 mg/L): 8.8
RLU max. (with 10 μM VI) ([6]; imipenem 4 mg/L): 72272 RLU

D-Luciferin-6-O-beta-D-galactopyranoside
Signal to noise ratio (to sterile) [7, 8]: 1.5
RLU, 6 h MH1:20 [7, 8]: 13367 RLU
Signal to noise ratio (to sterile) [7, 10]: 377
RLU, 6 h MH1:20 [7, 10]: 3306967 RLU
Signal to noise ratio (to sterile) [7, 12]: 544
RLU, 6 h MH1:20 [7, 12]: 4777613 RLU
